We go through three compounds from ChEMBL document CHEMBL5360663, “Discovery of a Novel Photocaged PI3K Inhibitor Capable of Real-Time Reporting of Drug Release” (ACS Med Chem Lett, 2023).

In data set [1] the target is Phosphatidylinositol 4,5-bisphosphate 3-kinase catalytic subunit alpha isoform (Homo sapiens, UniProt P42336). As to the kind of experiment: Inhibition of PI3Kalpha (unknown origin) using PIP2 as substrate in presence of ATP by Kinase-Glo assay.
The test system of data set [2] is HGC-27. In words: Antiproliferative activity against human HGC-27 cells assessed as inhibition of cell growth measured after 72 hrs by CTG assay. Format: functional, cell-based. The settings on record: HGC-27, 72 h.
The nature of data set [3]: Antiproliferative activity against human U373 cells assessed as inhibition of cell growth measured after 72 hrs by CTG assay. Format: functional, cell-based. The settings on record: U373 MG.
The test system of data set [4] is U-87 MG. As to the kind of experiment: Antiproliferative activity against human U-87 MG cells assessed as inhibition of cell growth measured after 72 hrs by CTG assay. Format: functional, cell-based, U-87MG ATCC.
Data set [5] deals with MCF7. In words: Antiproliferative activity against human MCF7 cells assessed as inhibition of cell growth measured after 72 hrs by CTG assay. Type of data set: functional, cell-based. The conditions noted are these: MCF7, 72 h.
The subject of data set [6] is SK-MEL-2. As to the kind of experiment: Antiproliferative activity against human SK-MEL-2 cells assessed as inhibition of cell growth measured after 72 hrs by CTG assay. Format: functional, cell-based. The conditions noted are these: SK-MEL-2, 72 h.
The subject of data set [7] is SK-MEL-5. As to the kind of experiment: Antiproliferative activity against human SK-MEL-5 cells assessed as inhibition of cell growth measured after 72 hrs by CTG assay. Type of data set: functional, cell-based. The settings on record: SK-MEL-5, 72 h.
In data set [8] the test system is HGC-27. In words: Antiproliferative activity against human HGC-27 cells assessed as inhibition of cell growth pre-treated with compound followed by UV irradiation for 5 mins measured after 72 hrs by CTG assay. Type of data set: functional, cell-based. The settings on record: HGC-27, light or radiation study.
Data set [9] in a line: Antiproliferative activity against human U373 cells assessed as inhibition of cell growth pre-treated with compound followed by UV irradiation for 5 mins measured after 72 hrs by CTG assay. Format: functional, cell-based. The settings on record: U373 MG, light or radiation study.
The test system of data set [10] is U-87 MG. In words: Antiproliferative activity against human U-87 MG cells assessed as inhibition of cell growth pre-treated with compound followed by UV irradiation for 5 mins measured after 72 hrs by CTG assay. Format: functional, cell-based, U-87MG ATCC. The settings on record: light or radiation study.
Data set [11] relates to MCF7. As to the kind of experiment: Antiproliferative activity against human MCF7 cells assessed as inhibition of cell growth pre-treated with compound followed by UV irradiation for 5 mins measured after 72 hrs by CTG assay. Type of data set: functional, cell-based. The settings on record: MCF7, light or radiation study.
For data set [12], the system named is SK-MEL-2. As to the kind of experiment: Antiproliferative activity against human SK-MEL-2 cells assessed as inhibition of cell growth pre-treated with compound followed by UV irradiation for 5 mins measured after 72 hrs by CTG assay. Type of data set: functional, cell-based. The conditions noted are these: SK-MEL-2, light or radiation study.
In data set [13] the test system is SK-MEL-5. In words: Antiproliferative activity against human SK-MEL-5 cells assessed as inhibition of cell growth pre-treated with compound followed by UV irradiation for 5 mins measured after 72 hrs by CTG assay. Type of data set: functional, cell-based. The conditions noted are these: SK-MEL-5, light or radiation study.
Data set [14] can be described thus: Selectivity ratio of IC50 for antiproliferative activity against human HGC-27 cells to IC50 for antiproliferative activity against human HGC-27 cells in presence of UV irradiation. Type of data set: functional.
The nature of data set [15]: Selectivity ratio of IC50 for antiproliferative activity against human U373 cells to IC50 for antiproliferative activity against human U373 cells in presence of UV irradiation. Format: functional.
A short description of data set [16]: Selectivity ratio of IC50 for antiproliferative activity against human U-87 MG cells to IC50 for antiproliferative activity against human U-87 MG cells in presence of UV irradiation. Format: functional, U-87MG ATCC.
Data set [17] in a line: Selectivity ratio of IC50 for antiproliferative activity against human MCF7 cells to IC50 for antiproliferative activity against human MCF7 cells in presence of UV irradiation. Format: toxicity, cell-based. The settings on record: read-out: Ratio IC50.
The nature of data set [18]: Selectivity ratio of IC50 for antiproliferative activity against human SK-MEL-2 cells to IC50 for antiproliferative activity against human SK-MEL-2 cells in presence of UV irradiation. Format: functional.
Data set [19] is described as follows: Selectivity ratio of IC50 for antiproliferative activity against human SK-MEL-5 cells to IC50 for antiproliferative activity against human SK-MEL-5 cells in presence of UV irradiation. Type of data set: functional.
Data set [20] concerns HGC-27. As to the kind of experiment: Inhibition of PI3K in human HGC-27 cells assessed as reduction in AKT phosphorylation at S473 residue at 10 nM pre-treated with compound followed by UV irradiation for 5 mins measured after 24 hrs by Western blotting analysis. Type of data set: cell-based. The conditions noted are these: time 1445.0 min.
Data set [21] concerns HGC-27. In words: Inhibition of PI3K in human HGC-27 cells assessed as reduction in S6RP phosphorylation at S240 and 244 residue at 10 nM pre-treated with compound followed by UV irradiation for 5 mins measured after 24 hrs by Western blotting analysis. Type of data set: cell-based. The settings on record: time 1445.0 min. In general terms: In western blotting, separated proteins are transferred to a membrane and probed.

The test system of data set [22] is HGC-27. As to the kind of experiment: Inhibition of colony formation in human HGC-27 cells at 10 nM pre-treated with compound followed by UV irradiation for 5 mins measured after 3 days by crystal violet staining based analysis. Format: functional, cell-based. The conditions noted are these: time 4325.0 min.
In data set [23] the test system is HGC-27. In words: Photorelease activity in human HGC-27 cells assessed as release of 7-hydroxy-3-(hydroxymethyl)-2H-chromen-2-one incubated for 2 hrs in presence of UV irradiation by confocal microscopic analysis. The settings on record: hgc-27, 2 h, dose 1-10 µM. Format: ADME, cell-based.
Data set [24] deals with HGC-27. As to the kind of experiment: Photorelease activity in human HGC-27 cells assessed as release of 7-hydroxy-3-(hydroxymethyl)-2H-chromen-2-one incubated for 2 hrs by confocal microscopic analysis. The settings on record: hgc-27, 2 h. Format: ADME, cell-based.
In data set [25] the test system is HGC-27. As to the kind of experiment: Photorelease activity in human HGC-27 cells assessed as increase in intracellular fluorescence intensity at 0.4 to 10 uM incubated for 2 hrs in presence of UV irradiation for 5 to 30 mins by fluorescence based microplate reader analysis. Type of data set: ADME, cell-based. The settings on record: hgc-27, 2 h, TDE = time-dependent effect, dose 0.4-10 µM.

In data set [26] the test system is HGC-27. As to the kind of experiment: Photorelease activity in human HGC-27 cells assessed as increase in intracellular fluorescence intensity incubated for 2 hrs in presence of UV irradiation for 5 to 30 mins by fluorescence based microplate reader analysis. Format: ADME, cell-based. The settings on record: hgc-27, 2 h, dose 0.4-10 µM.

Active and inactive are the calls of the source. The rule behind the calls is not given here.

Chain of Phosphatidylinositol 4,5-bisphosphate 3-kinase catalytic subunit alpha isoform (P42336 whole entry, canonical isoform): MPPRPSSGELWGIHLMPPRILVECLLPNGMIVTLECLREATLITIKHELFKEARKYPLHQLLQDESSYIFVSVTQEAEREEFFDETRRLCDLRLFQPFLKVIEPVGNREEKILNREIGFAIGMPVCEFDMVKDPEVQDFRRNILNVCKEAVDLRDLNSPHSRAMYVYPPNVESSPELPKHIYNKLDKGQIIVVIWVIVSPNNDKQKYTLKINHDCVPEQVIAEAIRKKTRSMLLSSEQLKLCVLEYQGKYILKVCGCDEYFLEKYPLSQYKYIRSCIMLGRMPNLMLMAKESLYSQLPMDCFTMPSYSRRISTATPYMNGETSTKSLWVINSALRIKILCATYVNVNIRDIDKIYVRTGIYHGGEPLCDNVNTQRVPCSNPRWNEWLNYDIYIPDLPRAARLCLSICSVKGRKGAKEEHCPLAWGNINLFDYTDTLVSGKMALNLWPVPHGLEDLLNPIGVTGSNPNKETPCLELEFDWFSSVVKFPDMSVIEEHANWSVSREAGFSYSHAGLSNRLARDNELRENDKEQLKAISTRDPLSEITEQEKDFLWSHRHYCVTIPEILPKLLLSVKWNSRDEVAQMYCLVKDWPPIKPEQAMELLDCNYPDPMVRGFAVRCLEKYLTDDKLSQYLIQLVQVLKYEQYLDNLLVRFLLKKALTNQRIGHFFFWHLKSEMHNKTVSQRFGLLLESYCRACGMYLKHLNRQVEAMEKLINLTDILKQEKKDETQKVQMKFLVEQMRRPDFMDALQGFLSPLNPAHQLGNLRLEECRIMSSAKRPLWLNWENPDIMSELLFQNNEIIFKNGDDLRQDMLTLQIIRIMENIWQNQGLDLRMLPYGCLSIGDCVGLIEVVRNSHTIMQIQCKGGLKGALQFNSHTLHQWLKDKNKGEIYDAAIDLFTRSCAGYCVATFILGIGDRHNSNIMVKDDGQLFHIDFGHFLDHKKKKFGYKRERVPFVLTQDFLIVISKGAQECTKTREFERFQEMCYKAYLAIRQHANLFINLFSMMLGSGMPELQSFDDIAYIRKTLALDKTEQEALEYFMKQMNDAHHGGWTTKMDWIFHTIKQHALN

On to `COc1cc(COc2ccc3cc(CN(c4cc(-c5cc(OC6CCOCC6)c6ncnc(C)c6c5)cnc4OC)S(=O)(=O)c4ccc(F)cc4F)c(=O)oc3c2)c([N+](=O)[O-])cc1OC`, for which the IC50 in data set [1] was 18.9 nM; in data set [2] it was 701 nM; in [3] it was above 10000 nM; in data set [4], 3260 nM; in data set [5], above 10000 nM; in [6], 2810 nM. The concentration for half-maximal inhibition (IC50) was found to be 6560 nM in data set [7]; 3.7 nM in [8]; 46 nM in data set [9]; 52 nM in data set [10]; 428 nM in data set [11]; 143 nM in data set [12]. In addition, in data set [13], the IC50 amounted to 434 nM. Besides, the “Ratio IC50” value in data set [14] is recorded as 189; in data set [15], above 217; in data set [16], 63; in data set [18], 20; in data set [19] it was 15. Further, in data set [17], the selectivity ratio is above 23. Moreover, the inhibition entry in [20] and in data set [21] was “Active” throughout. The outcome in data set [22] was Active. Further, the Activity entry in data set [23] was “Dose-Dependent Effect”; in data set [24], “Not Active”; in data set [25], “Tde”; in data set [26] it was “Dose-Dependent Effect”.

For `COc1ncc(-c2cc(OC3CCOCC3)c3ncnc(C)c3c2)cc1NS(=O)(=O)c1ccc(F)cc1F`, the 50% inhibitory concentration (IC50) in [1] is 0.17 nM; in [2] it was 1.8 nM; in data set [3] it was 57 nM; in data set [4], 50 nM; in data set [5], 282 nM; in [6] it was 190 nM. Also, in [7], the IC50 is 65 nM. In addition, the inhibition result in [20] and in data set [21] was “Active” each time. Further, the result in [22] was Active.

In the case of `COc1ncc(-c2cc(OC3CCOCC3)c3ncnc(C)c3c2)cc1N(Cc1cc2ccc(O)cc2oc1=O)S(=O)(=O)c1ccc(F)cc1F`, the IC50 turned out to be 2.07 nM in data set [1]; 3.9 nM in data set [2]; 25 nM in [3]; 11 nM in data set [4]; 295 nM in data set [5]; 130 nM in [6]. Besides, the concentration for half-maximal inhibition (IC50) in data set [7] worked out at 190 nM. Further, the inhibition result in data set [20] and in data set [21] was “Active” in each case. The outcome in data set [22] was Active.

By IC50 is commonly meant the concentration that gives 50% inhibition.
